Two molecules from paper PMC9481103 (2022) can be followed below.

Holding throughout (test): in-line probing
Holding throughout (conditions): 20 mM MgCl2, 100 mM KCl, 50 mM Tris-HCl pH 8.3, 28 °C, 42-48 h, apparent

The subject of experiment [1] is aptamer 1 (c-di-GMP-I riboswitch aptamer, cluster 1) (RNA, riboswitch) GUCGUGAACAAGCCACACCCCGGGCGACCGGGGGCCGGAAAGCCGCGGGUCUCAGCAGAGACGGCCGGGUUGCCACCAGGC
Experiment [2] deals with aptamer 3 (c-AMP-GMP riboswitch aptamer, cluster 3) (RNA, riboswitch) GCCGUGAAAAAACCACACCUCGGGCGACCGGGGGCCGGAAAGCCGCGGGUCUCAAAGGAGAUGGCCGGGUUGCCAGAAGGC
For experiment [3], the system named is aptamer 2 (c-di-GMP-I riboswitch aptamer, cluster 2) (RNA, riboswitch) GUCGUGAAGAAGCCACACCCCGGGCGACCGGGGGCCGGAAAGCCGCGGGUCUCAGCAGAGACGGCCGGGUUGCCACCAGAC

For the molecule `Nc1nc2c(ncn2[C@@H]2O[C@@H]3COP(=O)(O)O[C@H]4[C@@H](O)[C@H](n5cnc6c(=O)[nH]c(N)nc65)O[C@@H]4COP(=O)(O)O[C@H]3[C@H]2O)c(=O)[nH]1`, the KD was ~ 20 nM in experiment [1] (Hill coefficient fixed at 1), ~ 100 nM in experiment [2] (Hill coefficient fixed at 1) and ~ 77 nM in experiment [3] (Hill coefficient fixed at 1).
Regarding `Nc1nc2c(ncn2[C@@H]2O[C@@H]3COP(=O)(O)O[C@H]4[C@@H](O)[C@H](n5cnc6c(N)ncnc65)O[C@@H]4COP(=O)(O)O[C@H]3[C@H]2O)c(=O)[nH]1`, the KD is recorded as ~ 34 µM in experiment [1] (Hill coefficient fixed at 1, micro sign lost in text layer ("34 M")); ~ 1 µM in experiment [2] (Hill coefficient fixed at 1, micro sign lost in text layer ("1 M")); ~ 25 µM in experiment [3] (Hill coefficient fixed at 1, micro sign lost in text layer ("25 M")).
